Experimental findings from US9821002B2, “Method for alleviating radiation injury with isorhamnetin-3-O-β-D-glucoside” (Sinotai Oncology Associate., Ltd., priority 2015, dated 2017) are described below.

One assay deals with BNL CL.2 cells. Nature of the assay: Apoptosis assay (FITC Annexin V/PI) after X-ray irradiation. Format: cell-based, mouse. Particulars: 2 h pretreatment, X-ray 15 Gy, 96 hours, mean ± SEM. The source says: (§1) Four groups of BNL CL.2 cells (i.e., a normal control group referred to as Normal Control Group 1-A, an X-ray control group referred to as X-Ray Control Group 1-A, and two experimental groups referred to as Experimental Groups 1-A to 2-A), and six groups of NMuMG cells (i.e., a normal control group referred to as Normal Control Group 1-B, an X-ray control group referred to as X-Ray Control Group 1-B, two isorhamnetin groups referred to as Isorhamnetin Groups 1 to 2, and two experimental groups referred to as Experimental Groups 1-B to 2-B), were prepared based on the procedure set forth in “Source and cultivation of cell lines” of “Experimental materials”. BNL CL.2 cells in each group were cultivated using 5 mL of a corresponding medium shown in Table 1 and a 6-cm Petri dish in an amount of 2×10^5 cells per dish. Likewise, NMuMG cells in each group were cultivated using 5 mL of a corresponding medium shown in Table 1 and a 6-cm Petri dish in an amount of 2.5×10^5 cells per dish. The cultivation was conducted in an incubator (37° C., 5% CO2) for 24 hours.
(§2) Subsequently, medium was replaced with fresh medium. The obtained cultures in Experimental Groups 1-A, 1-B, 2-A, and 2-B were pretreated with the stock solution of isorhamnetin-3-O-β-D-glucoside, and the obtained cultures in Isorhamnetin Groups 1 to 2 were pretreated with the stock solution of isorhamnetin.
(§3) The culture in each group was then cultivated in an incubator (37° C., 5% CO2) for two hours. The resultant culture was used for the following experiments in sections B to D.
(§4) The cultures in X-Ray Control Group 1-A, X-Ray Control Group 1-B, Isorhamnetin Group 1, Isorhamnetin Group 2, Experimental Group 1-A, Experimental Group 1-B, Experimental Group 2-A, and Experimental Group 2-B, prepared according to section A of “Experimental procedures” in this example, were subjected to X-ray irradiation using a linear accelerator at a dose of 15 Gy. The cultures in Normal Control Groups 1-A and 1-B received no X-ray irradiation treatment. The culture of BNL CL.2 cells in each group was cultivated using a 6-cm Petri dish in an incubator (37° C., 5% CO2) for 96 hours, and the culture of NMuMG cells in each group was cultivated using a 6-cm Petri dish in an incubator (37° C., 5% CO2) for 72 hours. 1 mL of trypsin-EDTA was added to the culture in each group so as to detach the cells from the bottom of the Petri dish. Following this, 1 mL of a fresh medium (corresponding to the medium described in Table 1) was added to neutralize the activity of the trypsin, and the resultant cell suspension was transferred to a centrifuge tube with a pipette, followed by centrifugation at 1200 rpm for three minutes. The supernatant was removed, and the cell pellet thus obtained was washed once with cold PBS (pH 7.4), followed by centrifugation at 1200 rpm for 3 minutes. The supernatant was removed, and 100 μL of cold Annexin V binding buffer (BD Pharmingen™) was added to sufficiently re-suspend the cell pellet thereby obtaining a cell suspension having a cell concentration of 1.0×10^6 cells/mL. Afterward, 5 μL of FITC Annexin V (BD Pharmingen™) and 5 μL of propidium iodide (PI) staining solution (BD Pharmingen™) were added to the obtained cell suspension, followed by mixing evenly and standing in the dark at 4° C. for 30 minutes so as to obtain stained cells.
(§5) Subsequently, the stained cells were analyzed using BD Accuri™ C6 flow cytometry, in which cells that could be stained with FITC Annexin V but not with PI (i.e., FITC Annexin V positive and PI negative) represented cells that were induced with early apoptosis; cells stained with both FITC Annexin V and PI (i.e., FITC Annexin V positive and PI positive) represented cells that were induced with late apoptosis; and cells that could not be stained with FITC Annexin V and PI (i.e., FITC Annexin V negative and PI negative) represented viable cells. The number of stained cells was calculated using BD Accuri™ C6 software. […]

A further assay has as its system NMuMG cells. The assay is described as above. Type of assay: cell-based, mouse. Particulars: 2 h pretreatment, X-ray 15 Gy, 72 hours, mean ± SEM.
Excerpt: as §1, §2, §3, §4, §5

`COc1cc(-c2oc3cc(O)cc(O)c3c(=O)c2O[C@@H]2O[C@H](CO)[C@@H](O)[C@H](O)[C@H]2O)ccc1O` [isorhamnetin-3-O-β-D-glucoside]: the Apoptosis percentage in the assay on BNL CL.2 cells (5 μM) is 30.28 ± 3.09%; with BNL CL.2 cells (30 μM), 29.35 ± 1.92 %; in the assay with NMuMG cells (15 μM) it was 17.77 ± 0.88 %; in the assay on NMuMG cells (30 μM), 16.5 ± 0.62 %.
